Article PMC3701070 (PLoS ONE, 2013)

How the values were obtained:
Assay in all cases: Cell growth assay
Type in all cases: cell-based
SW756 = conditions: Homo sapiens, 72 h; SW756, RAF WT, KRAS(G12C), 3-day; read-out: gIC50
Description: (§1) Growth was measured with CellTiter-Glo® (Promega) reagent per the manufacturer’s protocol, using a PerkinElmer EnVision™ reader at t = 0 and 72 h. IC50 values for cell growth inhibition (gIC50) were determined.
(§2) (PDF) Click here for additional data file.

OVCAR-3 = conditions: Homo sapiens, 72 h; OVCAR-3, RAF WT, RAS WT, 3-day; read-out: gIC50
Description: as §1, §2

UACC-62 = conditions: Homo sapiens, 72 h; UACC-62, BRAF(V600E), RAS WT, 3-day; read-out: gIC50
Description: as §1, §2

NCI-H2052 = conditions: Homo sapiens, 72 h; NCI-H2052, RAF WT, RAS WT, 3-day; read-out: gIC50
Description: as §1, §2

TE381.T = conditions: Homo sapiens, TE 381.T, 72 h, RAF WT, RAS WT, 3-day, read-out: gIC50
Description: as §1, §2

647-V = conditions: Homo sapiens, 72 h, RAF WT, RAS WT, 3-day, read-out: gIC50
Description: as §1, §2

NCI-H322 = conditions: Homo sapiens, 72 h; NCI-H322, RAF WT, RAS WT, 3-day; read-out: gIC50
Description: as §1, §2

NCI-H460 = conditions: Homo sapiens, 72 h; NCI-H460, RAF WT, KRAS(Q61H), 3-day; read-out: gIC50
Description: as §1, §2

CAL-62 = conditions: Homo sapiens, 72 h; CAL-62, RAF WT, RAS WT, 3-day; read-out: gIC50
Description: as §1, §2

SNU-398 = conditions: Homo sapiens, 72 h; SNU-398, RAF WT, RAS WT, 3-day; read-out: gIC50
Description: as §1, §2

NCI-H69 = conditions: Homo sapiens, 72 h; NCI-H69, RAF WT, RAS WT, 3-day; read-out: gIC50
Description: as §1, §2

786-O = conditions: Homo sapiens, 786-0, 72 h, RAF WT, RAS WT, 3-day, read-out: gIC50
Description: as §1, §2

A172 = conditions: Homo sapiens, A 172, 72 h; A172, RAF WT, RAS WT, 3-day; read-out: gIC50
Description: as §1, §2

SW872 = conditions: Homo sapiens, 72 h; SW872, BRAF(V600E), RAS WT, 3-day; read-out: gIC50
Description: as §1, §2

CEM/C1 = conditions: Homo sapiens, 72 h; CEM/C1, RAF WT, RAS WT, 3-day; read-out: gIC50
Description: as §1, §2

RKO = conditions: Homo sapiens, 72 h, BRAF(V600E), RAS WT, 3-day, read-out: gIC50
Description: as §1, §2

NCI-H82 = conditions: Homo sapiens, 72 h; NCI-H82, RAF WT, RAS WT, 3-day; read-out: gIC50
Description: as §1, §2

NCI-H630 = conditions: Homo sapiens, 72 h; NCI-H630, RAF WT, RAS WT, 3-day; read-out: gIC50
Description: as §1, §2

NCI-H226 = conditions: Homo sapiens, 72 h; NCI-H226, RAF WT, RAS WT, 3-day; read-out: gIC50
Description: as §1, §2

HL-60 = conditions: Homo sapiens, 72 h; HL-60, RAF WT, RAS WT, 3-day; read-out: gIC50
Description: as §1, §2

NCI-H292 = conditions: Homo sapiens, 72 h; NCI-H292, RAF WT, RAS WT, 3-day; read-out: gIC50
Description: as §1, §2

SHP-77 = conditions: Homo sapiens, SHP77, 72 h; SHP-77, RAF WT, KRAS(G12V), 3-day; read-out: gIC50
Description: as §1, §2

SW1463 = conditions: Homo sapiens, 72 h; SW1463, RAF WT, RAS WT, 3-day; read-out: gIC50
Description: as §1, §2

SCC-25 = conditions: Homo sapiens, 72 h; SCC-25, RAF WT, RAS WT, 3-day; read-out: gIC50
Description: as §1, §2

OVCAR-5 = conditions: Homo sapiens, 72 h; OVCAR-5, RAF WT, RAS WT, 3-day; read-out: gIC50
Description: as §1, §2

Colo320DM = conditions: Homo sapiens, COLO 320DM, 72 h, RAF WT, RAS WT, 3-day, read-out: gIC50
Description: as §1, §2

MALME-3M = conditions: Homo sapiens, 72 h, BRAF(V600E), RAS WT, 3-day, read-out: gIC50
Description: as §1, §2

NCI-H2030 = conditions: Homo sapiens, 72 h; NCI-H2030, RAF WT, RAS WT, 3-day; read-out: gIC50
Description: as §1, §2

DLD-1 = conditions: Homo sapiens, 72 h; DLD-1, RAF WT, KRAS(G13D), 3-day; read-out: gIC50
Description: as §1, §2

JM1 = conditions: Homo sapiens, 72 h; JM1, RAF WT, RAS WT, 3-day; read-out: gIC50
Description: as §1, §2

SCC-9 = conditions: Homo sapiens, 72 h; SCC-9, RAF WT, RAS WT, 3-day; read-out: gIC50
Description: as §1, §2

## CC(C)(C)c1nc(-c2cccc(NS(=O)(=O)c3c(F)cccc3F)c2F)c(-c2ccnc(N)n2)s1 [dabrafenib]
SW756
  IC50: > 10 µM
OVCAR-3
  IC50: > 10 µM
UACC-62
  IC50: 1 nM
NCI-H2052
  IC50: > 10 µM
TE381.T
  IC50: > 10 µM
647-V
  IC50: > 10 µM
NCI-H322
  IC50: > 10 µM
NCI-H460
  IC50: > 10 µM
CAL-62
  IC50: > 10 µM
SNU-398
  IC50: > 10 µM
NCI-H69
  IC50: > 10 µM
786-O
  IC50: > 10 µM
A172
  IC50: > 10 µM
SW872
  IC50: 377 nM
CEM/C1
  IC50: 1770 nM
RKO
  IC50: 2520 nM
NCI-H82
  IC50: > 10 µM
NCI-H630
  IC50: > 10 µM
NCI-H226
  IC50: > 10 µM
HL-60
  IC50: 2180 nM
NCI-H292
  IC50: > 10 µM
SHP-77
  IC50: > 10 µM
SW1463
  IC50: > 10 µM
SCC-25
  IC50: > 10 µM
OVCAR-5
  IC50: > 10 µM
Colo320DM
  IC50: > 10 µM
MALME-3M
  IC50: 1 nM
NCI-H2030
  IC50: > 10 µM
DLD-1
  IC50: > 10 µM
JM1
  IC50: > 10 µM
SCC-9
  IC50: > 10 µM
